Assay in all cases: Postemergent control of plant species
One experiment has as its system rape. The class given is in vivo, Brassica napus. Conditions: Brassica napus, post-emergence, 336 h, read-out: percent postemergent control. The method in brief:
(§1)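 Compounds were taken up in acetone at twice the final concentration, then diluted with an equal volume of water containing 0.1% surfactant and sprayed onto greenhouse-grown plants at the 2-4 leaf stage. Plants were kept about two weeks under growth conditions; control is growth reduction relative to untreated plants of the same species.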

The subject of another experiment is rice. The class given is in vivo, Oryza sativa. As to conditions: Oryza sativa, post-emergence, 336 h, read-out: percent postemergent control. The method in brief: as §1
Another experiment concerns wild oats. The class given is in vivo, Avena fatua. As to conditions: Avena fatua, post-emergence, 336 h, read-out: percent postemergent control. The method in brief: as §1
Another experiment relates to cocklebur. The class given is in vivo, Xanthium spp. Conditions: Xanthium strumarium, post-emergence, 336 h, read-out: percent postemergent control. As to the method: In representative operations, each compound to be utilized in a series of tests is dissolved in acetone to one-half of the final volume (twice the final concentration) to be used and the acetone solution in each case is admixed with an equal volume of water containing 0.1 percent by weight of surface active material. The compositions, generally in the nature of an emulsion, were employed to spray separate respective plant species which had been grown to a 2-4 leaf stage in soil of good nutrient content in a greenhouse. The various beds were positioned side by side and exposed to substantially identical conditions of temperature and light. Each bed was maintained so as to prevent any interaction with test compounds in different seed beds. Other plants were left untreated to serve as controls. After treatment, the plants were maintained for about two weeks under greenhouse conditions conducive for good plant growth and watered as necessary. Control refers to the reduction in growth compared to the observed results of the same untreated species.

A further experiment has as its system velvetleaf. The class given is in vivo, Abutilon theophrasti. As to conditions: Abutilon theophrasti, post-emergence, 336 h, read-out: percent postemergent control. The procedure, abridged: as §1
A further experiment has as its system yellow foxtail. The class given is in vivo, Setaria lutescens. Conditions: Setaria, post-emergence, 336 h, read-out: percent postemergent control. The method in brief:
as §1

The next experiment deals with johnson grass. The class given is in vivo, Sorghum halepense. As to conditions: Sorghum halepense, post-emergence, 336 h, read-out: percent postemergent control. The method in brief:
as §1

The test system of the next experiment is soybean. The class given is in vivo, Glycine max. As to conditions: Glycine max, post-emergence, 336 h, read-out: percent postemergent control. The procedure, abridged:
as §1

Another experiment deals with barnyardgrass. The class given is in vivo, Echinochloa crusgalli. Conditions: Echinochloa crus-galli, post-emergence, 336 h, read-out: percent postemergent control. The method in brief:
as §1

Another experiment relates to annual morning glory. The class given is in vivo, Ipomoea spp. As to conditions: Ipomoea, post-emergence, 336 h, read-out: percent postemergent control. The method in brief: as §1
For the next experiment, the system named is cotton. The class given is in vivo, Gossypium spp. As to conditions: Gossypium hirsutum, post-emergence, 336 h, read-out: percent postemergent control. The procedure, abridged:
as §1

The next experiment has as its system wheat. The class given is in vivo, Triticum aestivum. Conditions: Triticum aestivum, post-emergence, 336 h, read-out: percent postemergent control. The procedure, abridged: as §1
The subject of a further experiment is pigweed. The class given is in vivo, Amaranthus spp. Conditions: Amaranthus retroflexus, post-emergence, 336 h, read-out: percent postemergent control. The method in brief:
as §1

Another experiment concerns sugar beet. The class given is in vivo, Beta saccharifera. Conditions: Beta vulgaris, post-emergence, 336 h, read-out: percent postemergent control. The method in brief:
as §1

A further experiment relates to jimsonweed. The class given is in vivo, Datura stramonium. As to conditions: Datura stramonium, post-emergence, 336 h, read-out: percent postemergent control. The method in brief:
as §1

A further experiment relates to yellow nutsedge. The class given is in vivo, Cyperus esculentus. Conditions: Cyperus, post-emergence, 336 h, read-out: percent postemergent control. The procedure, abridged: as §1
Another experiment deals with corn. The class given is in vivo, Zea mays. Conditions: Zea mays, post-emergence, 336 h, read-out: percent postemergent control. The method in brief:
as §1

The next experiment has as its system crabgrass. The class given is in vivo, Digitaria spp. As to conditions: Digitaria sanguinalis, post-emergence, 336 h, read-out: percent postemergent control. The method in brief:
as §1

The subject of the next experiment is sorghum. The class given is in vivo, Sorghum vulgare. Conditions: Sorghum, post-emergence, 336 h, read-out: percent postemergent control. The procedure, abridged:
as §1

For `COC(=O)c1ccc(Cl)c(NS(=O)(=O)c2nc3nc(C)cc(C)n3n2)c1Cl` [Compound 82], the plant injury at 500 ppm in the experiment on rape stood at 100%; in the experiment on rice, 0%; in the experiment with soybean it was 85%; in the experiment with cotton it was 85%; with wheat, 0%; in the experiment with sugar beet, 95%. Further, the plant injury at 500 ppm in the experiment on corn and with sorghum was 0% each time. The pest or weed control at 500 ppm in the experiment with wild oats is 0%; with cocklebur it was 85%; in the experiment on velvetleaf, 85%; with yellow foxtail it was 0%; in the experiment on johnson grass, 0%; with barnyardgrass, 0%. Moreover, the pest or weed control at 500 ppm stood at 85% in the experiment on annual morning glory; 100% in the experiment with pigweed; 90% in the experiment on jimsonweed; 0% in the experiment on yellow nutsedge; 0% with crabgrass.
As for `Cc1ccn2nc(S(=O)(=O)Nc3c(F)c(F)cc(F)c3F)nc2n1` [Compound 163], the plant injury at 500 ppm with rape amounted to 70%; in the experiment with rice it was 0%; in the experiment with soybean, 0%; with cotton, 0%; in the experiment on wheat, 0%; in the experiment with sugar beet, 0%. Further, the plant injury at 500 ppm with corn and in the experiment on sorghum was 0% throughout. Further, the pest or weed control at 500 ppm with wild oats is 0%; with cocklebur, 40%; with velvetleaf it was 20%; in the experiment with yellow foxtail, 50%; with johnson grass it was 0%; with barnyardgrass it was 0%. Also, the pest or weed control at 500 ppm with annual morning glory was 0%; in the experiment with pigweed it was 90%; in the experiment with jimsonweed, 70%; in the experiment with yellow nutsedge, 0%; in the experiment on crabgrass, 0%.
With `Cc1cc(C)n2nc(S(=O)(=O)Nc3c(Cl)ccc4ccccc34)nc2n1` [Compound 243], the plant injury at 500 ppm in the experiment with rape was 100%; in the experiment with rice, 45%; in the experiment with soybean it was 85%; in the experiment with cotton, 80%; in the experiment with wheat it was 20%; with sugar beet, 95%. The plant injury at 500 ppm in the experiment with corn and in the experiment with sorghum was 75% each time. Besides, the pest or weed control at 500 ppm in the experiment on wild oats stood at 0%; with cocklebur it was 100%; in the experiment with velvetleaf, 90%; with yellow foxtail, 75%; in the experiment with johnson grass it was 80%; in the experiment on barnyardgrass, 70%. Besides, the pest or weed control at 500 ppm with annual morning glory came to 80%; with pigweed, 80%; with jimsonweed, 95%; with yellow nutsedge, 95%; in the experiment with crabgrass, 0%.
In the case of `Cc1ccn2nc(S(=O)(=O)Nc3c(Cl)ccc4ccccc34)nc2n1` [Compound 244], the plant injury at 500 ppm in the experiment on rape turned out to be 100%; in the experiment with rice, 40%; in the experiment on soybean, 45%; in the experiment on cotton, 100%; in the experiment on wheat, 20%; in the experiment with sugar beet, 100%. In addition, the values for the plant injury at 500 ppm in the experiment with corn and in the experiment with sorghum were 40% and 90%, respectively. Moreover, the pest or weed control at 500 ppm was determined as 0% in the experiment with wild oats; 100% in the experiment with cocklebur; 100% in the experiment on velvetleaf; 95% in the experiment with yellow foxtail; 80% with johnson grass; 40% in the experiment on barnyardgrass. Also, the pest or weed control at 500 ppm in the experiment with annual morning glory turned out to be 90%; in the experiment with pigweed, 100%; in the experiment on jimsonweed, 100%; in the experiment with yellow nutsedge, 90%; in the experiment on crabgrass it was 40%.

(Values after patent publication US4740233A, “Substituted 1,2,4-triazolo[1,5-a]-pyrimidine-2-sulfonamides and compositions and methods of controlling undesired vegetation and suppressing the nitrification of ammonium nitrogen in soil” (The Dow Chemical Company, priority 1986, dated 1988).)
